# ChEMBL document CHEMBL4359822, “Design, synthesis of 4,5-diazafluorene derivatives and their anticancer activity via targeting telomeric DNA G-quadruplex” (Eur J Med Chem, 2019)
# Active and inactive are the calls of the source. No cut-off for these calls is given here.
# Assays:
# [1] = Selectivity index, ratio of IC50 for human MRC5 cells to IC50 for human HEPG2 cells
# AGS [2] = experiment: Antiproliferative activity against human AGS cells at 10 uM incubated for 36 hrs by CCK8 assay; type: functional, cell-based
# [3] = Selectivity index, ratio of IC50 for human MRC5 cells to IC50 for human AGS cells; type: toxicity; conditions: MRC5 cells versus AGS cells, read-out: Ratio IC50
# HepG2 [4] = experiment: Antiproliferative activity against human HepG2 cells incubated for 36 hrs by CCK8 assay; type: functional, cell-based; conditions: HepG2, 36 h
# A549 [5] = experiment: Antiproliferative activity against human A549 cells incubated for 36 hrs by CCK8 assay; type: functional, cell-based; conditions: A549, 36 h
# [6] = Binding affinity to Tel-26nt mutated-single-stranded DNA (unknown origin) at 4 to 16 uM measured after each titration for 15 mins during 24 hrs incubation by circular dichroism analysis
# [7] = Binding affinity to Tel26nt double stranded DNA (unknown origin) at 4 to 16 uM measured after each titration for 15 mins during 24 hrs incubation by circular dichroism analysis
# [8] = Binding affinity to Tel-26nt mutated-single-stranded DNA (unknown origin) at 24 uM incubated for 24 hrs by EMSA
# A549 [9] = experiment: Inhibition of cell migration in human A549 cells at 0.4 uM incubated for 48 hrs by wound healing assay relative to control; type: functional; conditions: A549, 48 h
# [10] = Binding affinity to Tel26nt double stranded DNA (unknown origin) at 24 uM incubated for 24 hrs by EMSA
# MCF7 [11] = experiment: Inhibition of cell migration in human MCF7 cells at 0.4 uM incubated for 48 hrs by wound healing assay relative to control; type: functional; conditions: MCF7, 48 h
# [12] = Binding affinity to Tel-26nt G-rich DNA (unknown origin) at => 3 uM incubated for 24 hrs by EMSA
# [13] = Binding affinity to biotinylated Tel-26nt G-rich DNA (unknown origin) at 1:1 ratio of test compound to DNA by SPR analysis
# [14] = molecular target: Telomerase reverse transcriptase (Homo sapiens) (UniProt O14746); experiment: Inhibition of telomerase activity in human A549 cells at 2 to 8 uM by TRAP assay; type: cell-based
# Sequence of Telomerase reverse transcriptase (Homo sapiens) (O14746 whole entry): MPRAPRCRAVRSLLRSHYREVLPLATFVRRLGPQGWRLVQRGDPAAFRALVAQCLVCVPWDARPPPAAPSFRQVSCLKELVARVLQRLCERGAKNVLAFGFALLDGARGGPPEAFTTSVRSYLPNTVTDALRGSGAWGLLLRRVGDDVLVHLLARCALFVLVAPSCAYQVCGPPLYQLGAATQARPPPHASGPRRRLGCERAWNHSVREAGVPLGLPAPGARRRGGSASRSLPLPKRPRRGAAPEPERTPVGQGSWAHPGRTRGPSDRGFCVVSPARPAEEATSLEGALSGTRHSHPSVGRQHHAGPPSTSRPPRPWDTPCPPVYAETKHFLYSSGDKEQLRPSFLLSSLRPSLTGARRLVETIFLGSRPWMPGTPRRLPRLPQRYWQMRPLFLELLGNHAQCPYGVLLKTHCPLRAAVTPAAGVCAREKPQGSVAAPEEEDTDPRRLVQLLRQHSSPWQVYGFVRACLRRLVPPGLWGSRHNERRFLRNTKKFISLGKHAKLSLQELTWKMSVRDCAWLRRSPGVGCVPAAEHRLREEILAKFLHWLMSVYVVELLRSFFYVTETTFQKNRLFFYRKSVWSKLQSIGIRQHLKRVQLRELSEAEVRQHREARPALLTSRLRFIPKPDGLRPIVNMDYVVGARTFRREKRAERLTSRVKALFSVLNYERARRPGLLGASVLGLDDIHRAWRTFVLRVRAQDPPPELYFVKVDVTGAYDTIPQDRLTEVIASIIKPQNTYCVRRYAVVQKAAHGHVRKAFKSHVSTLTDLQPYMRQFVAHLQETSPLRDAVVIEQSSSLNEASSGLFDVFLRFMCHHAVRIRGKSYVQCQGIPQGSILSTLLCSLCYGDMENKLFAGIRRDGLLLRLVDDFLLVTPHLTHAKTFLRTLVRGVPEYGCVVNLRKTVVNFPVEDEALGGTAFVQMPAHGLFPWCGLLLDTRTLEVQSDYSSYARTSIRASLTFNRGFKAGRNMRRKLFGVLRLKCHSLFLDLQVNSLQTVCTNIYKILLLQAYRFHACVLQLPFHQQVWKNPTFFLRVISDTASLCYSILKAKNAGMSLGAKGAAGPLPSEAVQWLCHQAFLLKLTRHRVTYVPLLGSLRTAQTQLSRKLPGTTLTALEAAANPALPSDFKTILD
# [15] = Binding affinity to Tel-26nt G-rich DNA (unknown origin) at 4 to 16 uM measured after each titration for 15 mins during 24 hrs incubation by circular dichroism analysis
# [16] = Binding affinity to Tel-26nt G-rich DNA (unknown origin) assessed as change in melting temperature by UV-vis spectrophotometry
# [17] = Binding affinity to Tel-26nt G-rich DNA (unknown origin) assessed as change in melting temperature at 4 uM by UV-vis spectrophotometry (reference value: 38.33 +/- 0.07 degreeC)
# MCF7 [18] = experiment: Inhibition of cell migration in human MCF7 cells at 0.2 uM incubated for 48 hrs by wound healing assay relative to control; type: functional; conditions: MCF7, 48 h
# [19] = Binding affinity to biotinylated Tel26nt double stranded DNA (unknown origin) assessed as dissociation rate constant by SPR analysis
# [20] = Binding affinity to Tel-26nt G-rich DNA (unknown origin) assessed as change in melting temperature at 8 uM by UV-vis spectrophotometry
# [21] = Selectivity index, ratio of IC50 for human MRC5 cells to IC50 for human MCF7 cells; type: toxicity; conditions: MRC5 cells versus MCF7 cells, read-out: Ratio IC50
# A549 [22] = experiment: Inhibition of cell migration in human A549 cells at 0.2 uM incubated for 48 hrs by wound healing assay relative to control; type: functional; conditions: A549, 48 h
# MCF7 [23] = experiment: Antiproliferative activity against human MCF7 cells at 10 uM incubated for 36 hrs by CCK8 assay; type: functional, cell-based
# [24] = Binding affinity to Tel-26nt G-rich DNA (unknown origin) incubated for 24 hrs by EMSA
# [25] = Binding affinity to biotinylated Tel-26nt G-rich DNA (unknown origin) assessed as dissociation rate constant by SPR analysis
# AGS [26] = experiment: Antiproliferative activity against human AGS cells incubated for 36 hrs by CCK8 assay; type: functional, cell-based
# [27] = Binding affinity to biotinylated Tel-26nt G-rich DNA (unknown origin) assessed as association equilibrium constant by SPR analysis
# A549 [28] = experiment: Antiproliferative activity against human A549 cells at 10 uM incubated for 36 hrs by CCK8 assay; type: functional, cell-based
# MRC5 = experiment: Antiproliferative activity against human MRC5 cells incubated for 36 hrs by CCK8 assay; type: cell-based; conditions: MRC5, 36 h
# [29] = Binding affinity to Tel-26nt G-rich DNA (unknown origin) at 10 uM by UV-Vis spectrophotometric analysis
# [30] = Binding affinity to Tel-26nt G-rich DNA (unknown origin) assessed as change in melting temperature at 2 uM by UV-vis spectrophotometry (reference value: 38.33 +/- 0.07 degreeC)
# [31] = molecular target: Telomerase reverse transcriptase (Homo sapiens) (UniProt O14746); experiment: Inhibition of telomerase activity in human A549 cells at 8 uM by TRAP assay relative to control; type: cell-based
# HepG2 [32] = experiment: Antiproliferative activity against human HepG2 cells at 10 uM incubated for 36 hrs by CCK8 assay; type: functional, cell-based
# [33] = Binding affinity to Tel-26nt G-rich DNA (unknown origin) at 0.25 :1 to 6 : 1 ratio of test compound to DNA measured after each titration for 15 mins during 24 hrs incubation by circular dichroism analysis
# [34] = Selectivity index, ratio of IC50 for human MRC5 cells to IC50 for human A549 cells; type: toxicity; conditions: MRC5 cells versus A549 cells, read-out: Ratio IC50
# [35] = Binding affinity to Tel-26nt C-rich DNA (unknown origin) at 24 uM incubated for 24 hrs by EMSA
# [36] = Binding affinity to 26-nt telomeric G-rich RNA (unknown origin) at 24 uM incubated for 24 hrs by EMSA
# [37] = Binding affinity to biotinylated Tel26nt double stranded DNA (unknown origin) at 1:1 ratio of test compound to DNA by SPR analysis
# [38] = Binding affinity to biotinylated Tel26nt double stranded DNA (unknown origin) assessed as association equilibrium constant by SPR analysis
# A549 [39] = experiment: Inhibition of cell migration in human A549 cells at 0.1 uM incubated for 48 hrs by wound healing assay relative to control; type: functional; conditions: A549, 48 h
# AGS [40] = experiment: Inhibition of cell migration in human AGS cells at 0.4 uM incubated for 48 hrs by wound healing assay relative to control; type: functional
# [41] = Binding affinity to Tel-26nt G-rich DNA (unknown origin) assessed as change in melting temperature at 8 uM by UV-vis spectrophotometry (reference value: 38.33 +/- 0.07 degreeC)
# HepG2 [42] = experiment: Inhibition of cell migration in human HepG2 cells at 0.1 uM incubated for 48 hrs by wound healing assay relative to control; type: functional; conditions: HepG2, 48 h
# [43] = Binding affinity to biotinylated Tel26nt double stranded DNA (unknown origin) assessed as association rate constant by SPR analysis
# AGS [44] = experiment: Inhibition of cell migration in human AGS cells at 0.1 uM incubated for 48 hrs by wound healing assay relative to control; type: functional
# AGS [45] = experiment: Inhibition of cell migration in human AGS cells at 0.2 uM incubated for 48 hrs by wound healing assay relative to control; type: functional
# HepG2 [46] = experiment: Inhibition of cell migration in human HepG2 cells at 0.4 uM incubated for 48 hrs by wound healing assay relative to control; type: functional; conditions: HepG2, 48 h
# HepG2 [47] = experiment: Inhibition of cell migration in human HepG2 cells at 0.2 uM incubated for 48 hrs by wound healing assay relative to control; type: functional; conditions: HepG2, 48 h
# MCF7 [48] = experiment: Inhibition of cell migration in human MCF7 cells at 0.1 uM incubated for 48 hrs by wound healing assay relative to control; type: functional; conditions: MCF7, 48 h
# [49] = Binding affinity to Tel-26nt G-rich DNA (unknown origin) at 12 uM incubated for 24 hrs by EMSA
# [50] = Selectivity ratio of binding affinity to biotinylated Tel26nt double stranded DNA (unknown origin) to binding affinity to biotinylated Tel-26nt G-rich DNA (unknown origin)
# MCF7 [51] = experiment: Antiproliferative activity against human MCF7 cells incubated for 36 hrs by CCK8 assay; type: functional, cell-based; conditions: MCF7, 36 h
# [52] = Binding affinity to biotinylated Tel-26nt G-rich DNA (unknown origin) assessed as association rate constant by SPR analysis
smiles,measurement,setting,value
CN(C)CCCn1cc(C=C2c3cccnc3-c3ncccc32)c(-c2ccc(Br)cc2)n1,Ratio IC50,[1],2.21
same,growth inhibition (GI),AGS [2],Active
same,selectivity ratio,[3],4.25
same,IC50,HepG2 [4],3.48 µM
same,IC50,A549 [5],1.13 µM
same,Activity,[6],inactive
same,Activity,[7],inactive
same,Activity,[8],inactive
same,inhibition at 0.4 µM,A549 [9],84.5%
same,Activity,[10],Active
same,inhibition at 0.4 µM,MCF7 [11],67.3%
same,Activity,[12],Active
same,Activity,[13],Active
same,inhibition,[14],Active
same,Activity,[15],Active
same,deltaTm,[16],Dose-dependent effect
same,Tm,[17],53.1 °C
same,inhibition at 0.2 µM,MCF7 [18],50.3%
same,Kd,[19],2.58 ×10⁻² /s
same,ΔTm,[20],24.3 °C
same,selectivity ratio,[21],1.46
same,inhibition at 0.2 µM,A549 [22],61.7%
same,growth inhibition (GI),MCF7 [23],Active
same,Activity,[24],Dose-dependent effect
same,Kd,[25],9.49 ×10⁻² /s
same,IC50,AGS [26],1.81 µM
same,KA,[27],7.04 ×10⁷ /M
same,growth inhibition (GI),A549 [28],Active
same,IC50,MRC5,7.92 µM
same,Activity,[29],Active
same,Tm,[30],48.6 °C
same,inhibition,[31],61.7%
same,growth inhibition (GI),HepG2 [32],Active
same,Activity,[33],Active
same,selectivity ratio,[34],7.01
same,Activity,[35],inactive
same,Activity,[36],inactive
same,Activity,[37],inactive
same,KA,[38],4.38 ×10⁴ /M
same,inhibition at 0.1 µM,A549 [39],22.3%
same,inhibition at 0.4 µM,AGS [40],89.8%
same,Tm,[41],44.9 °C
same,inhibition at 0.1 µM,HepG2 [42],27.9%
same,Ka,[43],1.13 ×10³ /M/s
same,inhibition at 0.1 µM,AGS [44],52.2%
same,inhibition at 0.2 µM,AGS [45],71.7%
same,inhibition at 0.4 µM,HepG2 [46],69.3%
same,inhibition at 0.2 µM,HepG2 [47],49.3%
same,inhibition at 0.1 µM,MCF7 [48],31.9%
same,Activity,[49],Active
same,Selectivity ratio,[50],> 1000
same,IC50,MCF7 [51],5.27 µM
same,Ka,[52],6.68 ×10⁶ /M/s
